Results: patent EP0629633A2, “Dinucleotide analogues, intermediates therefor and oligonucleotides derived therefrom” (CIBA-GEIGY AG, priority 1993, dated 1994)

How the values were obtained:
[1] = tested on: herpes simplex virus type 1(HSV-1) (strain 17i); experiment: Antiviral plaque reduction assay, HSV-1; type: cell-based; conditions: Human alphaherpesvirus 1; HSV-1, Vero cells, plaque numbers after 2 or 3 days
Method: (§1) Compound 34 is tested for antiviral activity against herpes simplex virus type 1(HSV-1) (strain 17i) and herpes simplex virus type 2(HSV-2) (strain HG52) in vitro. Aqueous solutions of the compounds are prepared at concentrations between 10mM and […]. The solutions are stored at -70°C after preparation and thawed prior to use in the antiviral assays. After thawing, the solutions are diluted to the appropriate concentration in the cell-culture medium without prior filtration.
(§2) In a procedure similar to that described by Tyms etal, J. Antimicrob. Chemother, 8,65-72 (1981), cell monolayers are infected with 20-200 plaque forming units and after virus adsorption the inoculum is replaced by maintenance medium containing different concentrations of the compound under investigation. Virus spread is prevented by the incorporation of 0.5% low gelling temperature agarose. At the end of a set period (2 or 3 days) monolayers are fixed, stained with methylene blue and plaque numbers determined.

[2] = tested on: herpes simplex virus type 2(HSV-2) (strain HG52); experiment: Antiviral plaque reduction assay, HSV-2; type: cell-based; conditions: Human alphaherpesvirus 2; HSV-2, Vero cells, plaque numbers after 2 or 3 days
Method: as §1, §2

Cc1cn(C2CC(O)C(CCP(=O)(c3ccccc3)C(O)C3CC(n4cc(C)c(=O)[nH]c4=O)OC3CO[Si](c3ccccc3)(c3ccccc3)C(C)(C)C)O2)c(=O)[nH]c1=O (centres unmarked) [Compound 34]
IC50 [1]: 2.6 µM
IC50 [2]: 3.8 µM
